Counter-ions that a name gives are not always drawn.
Tests used:
[1] = molecular target: T1, Angiotensin I Converting Enzyme (ACE) (Oryctolagus cuniculus, UniProt P12822); experiment: Inhibition of Angiotensin I Converting Enzyme (ACE), HHL substrate, modified Cushman method; format: biochemical; conditions: compound concentration 0.1 μM; substrate hippuryl-L-histidyl-L-leucine; 37° C., 1 hour; read-out: ACE inhibitory activity (%)
T1 sequence (P12822 34-1310): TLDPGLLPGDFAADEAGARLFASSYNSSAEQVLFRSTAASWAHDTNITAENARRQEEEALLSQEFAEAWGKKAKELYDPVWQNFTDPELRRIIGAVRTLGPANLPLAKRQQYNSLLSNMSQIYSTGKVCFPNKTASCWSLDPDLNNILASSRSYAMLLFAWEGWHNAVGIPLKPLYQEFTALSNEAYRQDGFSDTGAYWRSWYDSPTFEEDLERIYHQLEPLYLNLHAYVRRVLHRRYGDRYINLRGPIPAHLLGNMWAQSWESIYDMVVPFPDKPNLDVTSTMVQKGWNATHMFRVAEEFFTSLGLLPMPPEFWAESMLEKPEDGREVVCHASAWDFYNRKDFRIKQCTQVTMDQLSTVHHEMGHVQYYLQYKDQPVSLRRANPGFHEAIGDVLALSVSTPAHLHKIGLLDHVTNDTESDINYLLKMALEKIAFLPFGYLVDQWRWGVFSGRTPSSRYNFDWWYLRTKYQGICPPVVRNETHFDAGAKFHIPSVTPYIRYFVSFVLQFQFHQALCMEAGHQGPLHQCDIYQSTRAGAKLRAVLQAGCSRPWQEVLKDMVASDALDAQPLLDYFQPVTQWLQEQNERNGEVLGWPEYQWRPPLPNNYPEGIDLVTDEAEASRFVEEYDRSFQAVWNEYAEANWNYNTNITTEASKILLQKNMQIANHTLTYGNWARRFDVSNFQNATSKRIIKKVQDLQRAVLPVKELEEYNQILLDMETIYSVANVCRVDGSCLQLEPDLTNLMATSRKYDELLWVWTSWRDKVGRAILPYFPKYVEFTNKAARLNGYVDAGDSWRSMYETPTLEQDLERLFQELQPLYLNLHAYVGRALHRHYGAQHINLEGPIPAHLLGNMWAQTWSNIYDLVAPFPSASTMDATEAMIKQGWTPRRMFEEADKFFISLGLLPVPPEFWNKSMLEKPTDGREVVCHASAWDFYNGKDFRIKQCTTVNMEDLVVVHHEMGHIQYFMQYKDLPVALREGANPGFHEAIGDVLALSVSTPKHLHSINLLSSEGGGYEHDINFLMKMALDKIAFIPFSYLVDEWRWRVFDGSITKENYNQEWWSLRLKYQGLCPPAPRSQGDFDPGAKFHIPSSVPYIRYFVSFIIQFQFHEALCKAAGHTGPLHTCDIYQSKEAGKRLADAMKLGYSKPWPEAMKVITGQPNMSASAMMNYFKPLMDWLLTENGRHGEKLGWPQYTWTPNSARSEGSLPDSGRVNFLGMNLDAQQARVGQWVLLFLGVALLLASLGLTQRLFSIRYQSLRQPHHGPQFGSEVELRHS
Description: The experiment was conducted in accordance with a modification of the method described by Cushman et al. (Biochemical Pharmacology, Vol. 20, pp. 1637, 1971). Thus, using hippuryl-L-histidyl-L-leucine (HHL) as the substrate, the ACE inhibitory activity was determined in terms of percent inhibition on the amount of hippuric acid produced by ACE when the compound of the present invention was added. A solution of the compound of the present invention in 0.02 to 5% dimethylsulfoxide-100 mM borate-HCl buffer solution (pH 8.3, containing 300 mM sodium chloride) was added to 100 μl of ACE (protein concentration, 20 mg/ml) and 100 μl of 1.25 mM HHL. In this experiment, a borate-HCl buffer solution containing dimethylsulfoxide at a concentration equal to that of the test solution was used as a control. After warming the solution at 37° C. for 1 hour, 150 μl of 1N hydrochloric acid was added to the solution to terminate the reaction. After 0.8 ml of ethyl acetate was added, the solution was centrifuged at 11,500 rpm for 2 minutes. A 0.5 ml aliquot was separated from the ethyl acetate layer and dried at a temperature of not more than 40° C. under nitrogen gas streams. The residue was mixed thoroughly with 4.5 ml of distilled water, and the mixture was subjected to colorimetry at a wavelength of 228 nm.

[2] = system: hypertensive reaction by angiotensin I; experiment: Effect against hypertensive activity of angiotensin I in rats; format: in vivo; conditions: 300 μg/kg i.v., rat, corrected by angiotensin II response
Description: Male rats (Sprague-Awley) weighing 300 to 400 g which were fed under free access to drinking water and feed were used as experimental animals. The rats were anesthetized with intraperitoneal administration of pentobarbital sodium (50 mg/kg) on the day before the test day, and a polyethylene tube was inserted into each of the femoral artery for measurement of blood pressure and the femoral vein for injection of angiotensin I and II. And the tubes were fixed.
On the test day, an average blood pressure in the control phase was measured by an electric hemodynamometer (MPU-0.5-290-0-III model, manufactured by NEC-Sanei, Japan) and recorded by a polygraph (NEC-Sanei, Tupe 365, or Nippon Kohden Type RM-45), and thereafter, angiotensin I and then angiotensin II were injected through the femoral vein at a dose of 300 ng/kg and 100 ng/kg, respectively, to measure the hypertensive activity. Then, 300 μg/kg of the compound of the present invention was administered intravenously as an isotonic saline solution, and 5, 10, 30, 60, 90 and 120 minutes after the administration, angiotensin I and II were injected repeatedly to trace hypertensive reactions. In calculating the percent inhibition to the hypertensive activity of angiotensin I, the percent inhibitory value was corrected based on the variation with time in the hypertensive reaction by angiotensin II.

[3] = 5 min. after the administration
[4] = 10 min. after the administration
[5] = 30 min. after the administration
[6] = 60 min. after the administration
[7] = 90 min. after the administration
[8] = 120 min. after the administration

Row | inhibition at 0.1 µM [1] [%] | SMILES | Inhibition against hypertensive reaction by angiotension I, % [2, 3] [%] | Inhibition against hypertensive reaction by angiotension I, % [2, 4] [%] | Inhibition against hypertensive reaction by angiotension I, % [2, 5] [%] | Inhibition against hypertensive reaction by angiotension I, % [2, 6] [%] | Inhibition against hypertensive reaction by angiotension I, % [2, 7] [%] | Inhibition against hypertensive reaction by angiotension I, % [2, 8] [%]
1 | 94 | O=C(O)CN1C(=O)[C@@H](N[C@@H](CCC2CCOCC2)C(=O)O)CSc2ccccc21 [Example 74] | – | – | – | – | – | –
2 | 92 | O=C(O)CN1C(=O)[C@@H](N[C@@H](CCC2CCNCC2)C(=O)O)CSc2ccccc21 [Example 73, 3(R)-[1(S)-carboxy-3-(4-piperidyl)propyl]amino-4-oxo-2,3,4,5-tetrahydro-1,5-benzothiazepine-5-acetic acid] | – | – | – | – | – | –
3 | 92 | O=C(O)CN1C(=O)[C@@H](N[C@@H](CCCC2CCNCC2)C(=O)O)CSc2ccccc21 [Example 91, 3(R)-[1(S)-carboxy-4-(4-piperidyl)butyl]amino-4-oxo-2,3,4,5-tetrahydro-1,5-benzothiazepine-5-acetic acid] | – | – | – | – | – | –
4 | 89 | O=C(O)CN1C(=O)[C@@H](N[C@@H](CCC2CCSCC2)C(=O)O)CSc2ccccc21 [Example 75] | – | – | – | – | – | –
5 | 98 | O=C(O)CN1C(=O)[C@@H](N[C@@H](CCCCC2CCNCC2)C(=O)O)CSc2ccccc21 [Example 95, 3(R)-[1(S)-carboxy-5-(4-piperidyl)pentyl]amino-4-oxo-2,3,4,5-tetrahydro-1,5-benzothiazepine-5-acetic acid] | 96 | 94 | 99 | 89 | 96 | 91

The remaining lines, values behind:

Row | SMILES | inhibition at 0.1 µM [1] [%] | Inhibition against hypertensive reaction by angiotension I, % [2, 3] [%] | Inhibition against hypertensive reaction by angiotension I, % [2, 4] [%] | Inhibition against hypertensive reaction by angiotension I, % [2, 5] [%] | Inhibition against hypertensive reaction by angiotension I, % [2, 6] [%] | Inhibition against hypertensive reaction by angiotension I, % [2, 7] [%] | Inhibition against hypertensive reaction by angiotension I, % [2, 8] [%]
6 | O=C(O)CN1C(=O)[C@@H](N[C@@H](CCCCCC2CCNCC2)C(=O)O)CSc2ccccc21 [Example 98, 3(R)-[1(S)-carboxy-6-(4-piperidyl)hexyl]amino-4-oxo-2,3,4,5-tetrahydro-1,5-benzothiazepine-5-acetic acid] | 98 | 100 | 100 | 100 | 100 | 95 | 79
7 | O=C(O)CN1C(=O)[C@@H](N[C@@H](CCCCN2CCCCC2)C(=O)O)CSc2ccccc21 [Example 82, 3(R)-[1(S)-carboxy-5-piperidinopentyl]amino-4-oxo-2,3,4,5-tetrahydro-1,5-benzothiazepine-5-acetic acid] | 92 | – | – | – | – | – | –
8 | CCOC(=O)C(CCCC1CCNCC1)NC1CSc2ccccc2N(CC(=O)O)C1=O [Example 90, 3(R)-[1(S)-ethoxycarbonyl-4-(4-piperidyl)butyl]-amino-4-oxo-2,3,4,5-tetrahydro-1,5-berzothiazepine-5-acetic acid.dihydrobromide] | – | 100 | 100 | 100 | 90 | 67 | 62
9 | O=C(O)CN1C(=O)[C@@H](N[C@@H](CCCCCCC2CCNCC2)C(=O)O)CSc2ccccc21 [Example 100, 3(R)-[1(S)-carboxy-7-(4-piperidyl)heptyl]amino-4-oxo-2,3,4,5-tetrahydro-1,5-benzothiazepine-5-acetic acid] | 98 | – | – | – | – | – | –

From patent US4638000A, “Condensed seven-membered ring compounds, their production and use” (Takeda Chemical Industries, Ltd., priority 1984, dated 1987)
